Key:
cyclo-oxygenase = assay: enzyme assay (Blackwell and Flower), inhibition of cyclo-oxygenase; format: biochemical; settings: read-out: ED50 Cyclo-oxygenase
lipoxygenase = assay: enzyme assay (Blackwell and Flower), inhibition of lipoxygenase; format: biochemical; settings: read-out: ED50 Lipoxygenase

Row | SMILES | IC50 (cyclo-oxygenase) | IC50 (lipoxygenase)
1 | CNC(=S)NC1=NN(c2cnc3ccccc3c2)CC1 [Example 13, 3-(3-Methylthioureido)-1-(3-quinolyl)-2-pyrazoline] | 10000 nM | 10000 nM
2 | O=C(NC1=NN(c2cccc(C(F)(F)F)c2)CC1)Nc1ccccc1 [Example 1, 3-(N^2-phenylureido)-1-(3-trifluoromethylphenyl)-2-pyrazoline] | 3000 nM | 5000 to 10000 nM
3 | CNC(=S)NC1=NN(c2ccccc2Cl)CC1 [Example 14, 1-(2-Chlorophenyl)-3-(3-methylthioureido)-2-pyrazoline] | 10000 nM | 10000 nM
4 | CNC(=S)NC1=NN(c2ccc3ccccc3c2)CC1 [Example 10, 3-(3-methylthioureido)-1-(2-naphthyl)-2-pyrazoline] | 250 nM | 1000 nM
5 | CNC(=S)NC1=NN(c2cccc(C(F)(F)F)c2)CC1 [Example 3, 3-(N^2-methylthioureido)-1-(3-trifluoromethylphenyl)-2-pyrazoline] | 1000 nM | 1000 nM
6 | CNC(=S)NC1=NN(c2ccc(Cl)cc2)CC1 [Example 6, 3-(3-methylthioureido)-1-(4-chlorophenyl)-2-pyrazoline] | 5000 nM | 3000 nM
7 | CN=C(NC1=NN(c2cccc(C(F)(F)F)c2)CC1)SC [Example 5, 3-(N^2,S-dimethylisothioureido)-1-(3-trifluoromethylphenyl)-2-pyrazoline hydriodide monohydrate] | 1000 nM | 1000 nM
8 | CCCCNC(=S)NC1=NN(c2cccc(C(F)(F)F)c2)CC1 [Example 8, 3-(3-butylthioureido)-1-(3-trifluoromethylphenyl)-2-pyrazoline] | 10000 nM | 10000 nM
9 | CN=C(NC1=NN(c2ccc3ccccc3c2)CC1)SC [Example 17, N^1,S-Dimethyl-N^2 -/1-(2-naphthyl)-2-pyrazolin-3-yl/isothiourea hydriodide] | 1000 nM | 1000 nM
10 | CN=C(NC1=NN(c2ccc(Cl)cc2)CC1)SC [Example 9, N,S-dimethyl-N^2 -/1-(4-chlorophenyl)-2-pyrazoline-3-yl/isothiourea hydriodide] | 10000 nM | 10000 nM
11 | CNC(=O)NC1=NN(c2cccc(C(F)(F)F)c2)CC1 [Example 2, 3-(N^2-methylureido)-1-(3-trifluoromethylphenyl)-2-pyrazoline] | 3000 nM | 3000 nM

From patent US4465685A, “Antiinflammatory pyrazole thioureas” (Burroughs Wellcome Co., priority 1980, dated 1984)
